Measured values reported in article PMC8956313, “Biological investigation of N-methyl thiosemicarbazones as antimicrobial agents and bacterial carbonic anhydrases inhibitors” (Journal of Enzyme Inhibition and Medicinal Chemistry, 2022).

How the values were obtained:
Experiment in all cases: stopped-flow CO2 hydrase assay
Type in all cases: biochemical
hCA II = molecular target: T1, hCA II (Homo sapiens, UniProt P00918)
T1 construct: gene CA2; recombinant, obtained in house

EcoγCA = molecular target: T2, EcoγCA (Escherichia coli, UniProt P0A9W9)
T2 construct: gene yrdA; recombinant, expressed in E. coli (DE3), purified
T2 sequence (P0A9W9 1-184): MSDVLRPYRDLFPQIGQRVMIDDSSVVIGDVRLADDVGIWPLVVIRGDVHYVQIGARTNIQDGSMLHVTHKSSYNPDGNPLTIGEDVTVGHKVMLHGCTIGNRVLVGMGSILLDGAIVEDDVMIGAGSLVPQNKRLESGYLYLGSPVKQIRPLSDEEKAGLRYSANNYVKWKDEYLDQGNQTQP

psCA3-β = molecular target: T3, psCA3-β (Pseudomonas aeruginosa, UniProt Q9HVB9)
T3 construct: gene PA4676; recombinant, expressed in E. coli (DE3), purified
T3 sequence (Q9HVB9 1-215): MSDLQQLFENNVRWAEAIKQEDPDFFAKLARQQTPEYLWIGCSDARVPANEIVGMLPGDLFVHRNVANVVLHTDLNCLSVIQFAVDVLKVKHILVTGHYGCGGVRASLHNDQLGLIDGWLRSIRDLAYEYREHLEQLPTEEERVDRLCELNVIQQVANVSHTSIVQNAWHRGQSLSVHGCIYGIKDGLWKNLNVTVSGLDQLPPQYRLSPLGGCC

EcoβCA = molecular target: T4, EcoβCA (Escherichia coli, UniProt P61517)
T4 construct: gene can; recombinant, expressed in E. coli (DE3), purified
T4 sequence (P61517 whole entry): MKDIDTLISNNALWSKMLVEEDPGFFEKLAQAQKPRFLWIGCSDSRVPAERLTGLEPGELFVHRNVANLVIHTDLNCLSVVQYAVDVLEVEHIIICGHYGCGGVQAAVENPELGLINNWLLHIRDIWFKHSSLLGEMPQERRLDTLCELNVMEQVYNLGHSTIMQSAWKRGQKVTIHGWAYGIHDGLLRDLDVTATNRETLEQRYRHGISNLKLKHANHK

hCA I = molecular target: T5, hCA I (Homo sapiens, UniProt P00915)
T5 construct: gene CA1; recombinant, obtained in house
T5 sequence (P00915 2-261): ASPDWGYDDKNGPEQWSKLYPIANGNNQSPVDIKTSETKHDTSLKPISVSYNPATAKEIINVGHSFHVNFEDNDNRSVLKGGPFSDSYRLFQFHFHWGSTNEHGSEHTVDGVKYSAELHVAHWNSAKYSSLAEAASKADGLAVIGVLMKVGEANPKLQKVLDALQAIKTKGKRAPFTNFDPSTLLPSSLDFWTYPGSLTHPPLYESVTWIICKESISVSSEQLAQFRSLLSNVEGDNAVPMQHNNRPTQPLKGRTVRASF

HpβCA = molecular target: T6, HpβCA (Helicobacter pylori, UniProt O24855)
T6 construct: gene cynT; recombinant, expressed in E. coli (DE3), purified
T6 sequence (O24855 1-221): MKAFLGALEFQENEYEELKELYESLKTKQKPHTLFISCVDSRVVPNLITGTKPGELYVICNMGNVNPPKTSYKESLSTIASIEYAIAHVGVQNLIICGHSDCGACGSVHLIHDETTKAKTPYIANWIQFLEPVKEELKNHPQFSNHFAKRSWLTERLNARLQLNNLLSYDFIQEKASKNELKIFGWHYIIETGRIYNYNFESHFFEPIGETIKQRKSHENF

HpαCA = molecular target: T7, HpαCA (Helicobacter pylori, UniProt O25798); settings: HEPES pH 7.40, 20 mM Na2SO4, 15 min preincubation, room temperature
T7 construct: gene HP_1186; recombinant, expressed in E. coli (DE3), purified
T7 sequence (O25798 19-202): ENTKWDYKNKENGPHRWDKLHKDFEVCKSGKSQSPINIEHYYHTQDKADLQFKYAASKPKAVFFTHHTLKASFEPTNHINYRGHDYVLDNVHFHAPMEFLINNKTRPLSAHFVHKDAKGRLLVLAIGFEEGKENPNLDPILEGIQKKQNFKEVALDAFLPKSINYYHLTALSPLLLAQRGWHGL

Compound	Ki (hCA II)	Ki (EcoγCA)	Ki (psCA3-β)	Ki (hCA I)	other results
CNC(=S)NN=C(C)c1ccc(OC)cc1 [compound 1, TSC 1]	> 800 µM	86.2 µM	92.1 µM	–	–
CNC(=S)NN=C(C)c1ccc(S(C)(=O)=O)cc1 [compound 2, TSC 2]	> 800 µM	80 µM	93.4 µM	–	–
CNC(=S)NN=C(C)c1ccc(N2CCOCC2)cc1 [compound 3, TSC 3]	> 800 µM	–	–	–	Ki (EcoβCA): 91.5 µM
CNC(=S)NN=C(C)c1ccc(-n2ccnc2)cc1 [compound 4, TSC 4]	–	–	–	> 1000 µM	–
CNC(=S)NN=C(C)c1ccc(-c2cc3ccccc3[nH]2)cc1 [compound 5, TSC 5]	–	–	–	–	Ki (HpβCA): 348 µM; Ki (HpαCA): 95.2 µM
CNC(=S)NN=C(C)c1ccc2c(c1)OCO2 [compound 6, TSC 6]	–	–	–	> 1000 µM	–
CNC(=S)NN=C(C)c1ccc2c(c1)OCCO2 [compound 7, TSC 7]	–	–	–	> 1000 µM	Ki (EcoβCA): 96.5 µM
CNC(=S)NN=C(C)c1ccc(Br)s1 [compound 9, TSC 9]	> 800 µM	83.2 µM	86.7 µM	–	–
